Experimental data taken from patent US20120214862A1, “MODULATION OF FACTOR 7 EXPRESSION” (ISIS Pharmaceuticals, Inc., priority 2009, published 2012).
In the oligonucleotide strings, read from the 5' end, every base follows the letter of its sugar. An asterisk marks phosphorothioate; unmarked linkages are phosphodiester. Other units and linkages are bracketed, terminal groups are in braces. A string of capitals states the bases alone. e = 2'-O-(2-methoxyethyl) (MOE); [5mC] = 5-methylcytosine; d = 2'-deoxy (DNA)

How the values were obtained:
Type in all cases: cell-based
human Factor 7 mRNA [1] = assay: Antisense inhibition of human Factor 7 mRNA in HepB3 cells, lipofectin, 50 nM, real-time RT-PCR; conditions: HepB3 cells
Method in brief: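 Readout is percent reduction of Factor 7 message compared with untreated cells, after correction for total RNA content quantified by RIBOGREEN®. Cultures were seeded at 4,000 cells per well and treated for about 24 hours before RNA extraction.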

human Factor 7 mRNA [2] = assay: Dose-dependent antisense inhibition of human Factor 7 in HepB3 cells, transfection with lipofectin; conditions: for percent inhibition of Factor 7 mRNA, 6.25 nM / percent inhibition of Factor 7 mRNA, 12.5 nM / percent inhibition of Factor 7 mRNA, 25.0 nM / percent inhibition of Factor 7 mRNA, 50.0 nM / percent inhibition of Factor 7 mRNA, 100.0 nM: Example 5, HepB3, lipofectin, ~16 h; for percent inhibition of Factor 7 mRNA, relative to untreated control cells: lipofectin, HepB3 cells, 16 hours
Experimental: Cells were plated at a density of 4,000 cells per well and treated with lipofectin reagent with 3.125 nM, 6.25 nM, 12.5 nM, 25 nM, 50 nM, and 100 nM concentrations of antisense oligonucleotide, as indicated in Table 3. After a treatment period of approximately 16 hours, RNA was isolated from the cells and Factor 7 mRNA levels were measured by real-time RT-PCR, as described herein. Human Factor 7 primer probe set RTS 2927 (forward sequence: […], incorporated herein as SEQ ID NO: 164; reverse sequence: […], incorporated herein as SEQ ID NO: 165; probe sequence: TGGGTGGTCTCCGCGGCCX, incorporated herein as SEQ ID NO: 166) was used to measure mRNA levels. Factor 7 mRNA levels were adjusted according to total RNA content as measured by RIBOGREEN®. Results are presented as percent inhibition of Factor 7, relative to untreated control cells.
Cells were plated at a density of 4,000 cells per well and transfected using lipofectin reagent with 6.25 nM, 12.5 nM, 25.0 nM, 50.0 nM, and 100.0 nM concentrations of antisense oligonucleotide, as indicated in Table 7. After a treatment period of approximately 16 hours, RNA was isolated from the cells and Factor 7 mRNA levels were measured by real-time RT-PCR, as described herein. Human Factor 7 primer probe set RTS 2927 was used to measure mRNA levels. Factor 7 mRNA levels were adjusted according to total RNA content as measured by RIBOGREEN®. Results are presented as percent inhibition of Factor 7, relative to untreated control cells.
Cells were plated at a density of 4,000 cells per well and transfected using lipofectin reagent with 3.125 nM, 6.25 nM, 12.5 nM, 25 nM, 50 nM, and 100 nM concentrations of antisense oligonucleotide, as specified in Table 14. After a treatment period of approximately 16 hours, RNA was isolated from the cells and Factor 7 mRNA levels were measured by quantitative real-time PCR. Human Factor 7 primer probe set RTS 2927 was used to measure mRNA levels. Factor 7 mRNA levels were adjusted according to total RNA content, as measured by RIBOGREEN®. Results are presented as percent inhibition of Factor 7, relative to untreated control cells.

human Factor 7 mRNA [3] = assay: Inhibition of human Factor 7 mRNA by 2-10-2 MOE shortmers in HepB3 cells, electroporation, 1,000 nM; conditions: electroporation, 1,000 nM oligonucleotide, approximately 24 hours, relative to untreated control cells
Description: Short antisense oligonucleotides (shortmers) were designed to target a Factor 7 nucleic acid. The shortmers in Table 17 were designed as 2-10-2 MOE gapmers. The gapmers are 14 nucleotides in length, wherein the central gap segment is comprised of 10 2′-deoxynucleotides and is flanked on both sides (in the 5′ and 3′ directions) by wings comprising 2 nucleotides each. Each nucleotide in the 5′ wing segment and each nucleotide in the 3′ wing segment has a 2′-MOE modification. The internucleoside linkages throughout each gapmer are phosphorothioate (P═S) linkages. All cytidine residues throughout each gapmer are 5-methylcytidines.
Shortmers were evaluated for their ability to reduce human Factor 7 mRNA in HepB3 cells and compared with one 5-10-5 chimeric oligonucleotide from Table 16, ISIS 407939. HepB3 cells at a density of 20,000 cells per well in a 96-well plate were transfected using electroporation with 1,000 nM of antisense oligonucleotide. After a treatment period of approximately 24 hours, RNA was isolated from the cells and Factor 7 mRNA levels were measured by real-time RT-PCR, as described herein. Factor 7 mRNA levels were adjusted according to total RNA content as measured by RIBOGREEN®. Results are presented in Table 17 as percent inhibition of Factor 7 mRNA, relative to untreated control cells. ISIS 407939 is the first oligonucleotide in […] to which the shortmers were compared, and is marked by an asterisk (*).

[4] = lipofectin, 50 nM antisense oligonucleotide, approximately 24 hours, primer probe set RTS 2927, relative to untreated control
[5] = gapmers (5-10-5, 3-14-3, 2-13-5 MOE) targeted to nucleobases 4868 to 4899 of SEQ ID NO: 1

| Substance | % Inhibition of human Factor 7 mRNA levels (human Factor 7 mRNA [1]; [4]) | percent inhibition of Factor 7 mRNA, 6.25 nM (human Factor 7 mRNA [2]) | percent inhibition of Factor 7 mRNA, 12.5 nM (human Factor 7 mRNA [2]; 12.5 nM) | percent inhibition of Factor 7 mRNA, 25.0 nM (human Factor 7 mRNA [2]) | percent inhibition of Factor 7 mRNA, 50.0 nM (human Factor 7 mRNA [2]) | percent inhibition of Factor 7 mRNA, 100.0 nM (human Factor 7 mRNA [2]) | % inhibition of human Factor 7 mRNA (human Factor 7 mRNA [3]) | further results |
| --- | --- | --- | --- | --- | --- | --- | --- | --- |
| 416438 (antisense e[5mC]*eA*eG*eG*eA*dG*d[5mC]*d[5mC]*d[5mC]*d[5mC]*d[5mC]*dA*dT*dT*d[5mC]*eT*eG*eG*e[5mC]*eA) [compound 416438] | 63% | 11% | 33% | 56% | 75% | 82% |  |  |
| 416446 (antisense eG*eG*eT*e[5mC]*eA*d[5mC]*dT*dG*d[5mC]*dA*dG*dT*dA*d[5mC]*dT*eG*e[5mC]*eT*e[5mC]*eA) [compound 416446] | 64% | 25% | 24% | 50% | 69% | 64% |  |  |
| 416449 (antisense eT*eA*eG*eG*eT*dA*dT*dT*dT*dT*dT*d[5mC]*d[5mC]*dA*d[5mC]*eA*eT*eG*eG*eA) [compound 416449] | 68% | 19% | 33% | 45% | 65% | 85% |  |  |
| 416455 (antisense e[5mC]*eG*e[5mC]*e[5mC]*eG*dG*d[5mC]*dT*d[5mC]*dT*dG*d[5mC]*dT*d[5mC]*dA*eT*e[5mC]*e[5mC]*e[5mC]*e[5mC]) [compound 416455] | 72% | 28% | 44% | 64% | 78% | 87% |  | % Inhibition of human Factor 7 mRNA levels (human Factor 7 mRNA [1]; gapmers targeted to nucleobases 13760 to 13789 of SEQ ID NO: 1 (Table 10)): 51% |
| 416472 (antisense e[5mC]*eA*eG*e[5mC]*e[5mC]*dT*dT*dG*dG*d[5mC]*dT*dT*dT*d[5mC]*dT*e[5mC]*eT*e[5mC]*e[5mC]*eA) [compound 416472] | 76% | 16% | 44% | 64% | 80% | 88% |  |  |
| 416477 (antisense e[5mC]*eA*eG*e[5mC]*e[5mC]*dT*dG*dA*dG*dG*d[5mC]*d[5mC]*dA*dG*d[5mC]*eA*eG*eA*eT*e[5mC]) [compound 416477] | 74% | 21% | 46% | 64% | 78% | 87% |  | % Inhibition of human Factor 7 mRNA levels (human Factor 7 mRNA [1]; gapmers targeted to nucleobases 14707 to 14732 of SEQ ID NO: 1 (Table 11)): 71% |
| 416507 (antisense eG*eG*eT*eT*eA*d[5mC]*dT*dG*dA*dG*d[5mC]*dG*d[5mC]*dG*dG*eA*eA*eG*eA*eA) [compound 416507] | 73% | 30% | 53% | 70% | 77% | 72% |  |  |
| 416508 (antisense e[5mC]*eG*eA*eG*eT*dT*d[5mC]*dT*dG*d[5mC]*dA*dG*dG*dA*dG*e[5mC]*eG*eG*e[5mC]*e[5mC]) [compound 416508] | 67% | 42% | 51% | 71% | 79% | 89% |  | % Inhibition of human Factor 7 mRNA levels (human Factor 7 mRNA [1]; [5]): 67% |
| 416549 (antisense eG*eA*e[5mC]*eA*eA*dT*dG*dG*dT*d[5mC]*dA*dG*dG*dG*d[5mC]*eT*eG*eG*eT*eT) [compound 416549] | 68% | 38% | 44% | 63% | 73% | 78% |  | % Inhibition of human Factor 7 mRNA levels (human Factor 7 mRNA [1]; gapmers targeted to nucleobases 11830 to 11869 of SEQ ID NO: 1 (Table 9)): 69% |
| 422294 (antisense eG*eA*dG*dT*dT*d[5mC]*dT*dG*d[5mC]*dA*dG*dG*dA*dG*d[5mC]*eG*eG*e[5mC]*e[5mC]*eT) [compound 422294] |  |  |  |  |  |  |  | % Inhibition of human Factor 7 mRNA levels (human Factor 7 mRNA [1]; [5]): 78%; percent inhibition of Factor 7 mRNA, relative to untreated control cells (human Factor 7 mRNA [2]; 3.125 nM): 9%; percent inhibition of Factor 7 mRNA, relative to untreated control cells (human Factor 7 mRNA [2]; 12.5 nM): 32%; percent inhibition of Factor 7 mRNA, relative to untreated control cells (human Factor 7 mRNA [2]; 25 nM): 61%; percent inhibition of Factor 7 mRNA, relative to untreated control cells (human Factor 7 mRNA [2]; 50 nM): 77%; percent inhibition of Factor 7 mRNA, relative to untreated control cells (human Factor 7 mRNA [2]; 100 nM): 84%; percent inhibition of Factor 7 mRNA, relative to untreated control cells (human Factor 7 mRNA [2]): 21% |
| 435478 (antisense eG*eA*dG*dG*d[5mC]*dA*d[5mC]*dA*d[5mC]*dT*dG*dG*eT*e[5mC]) [compound 435478] |  |  |  |  |  |  | 43% |  |
| 435479 (antisense e[5mC]*eA*d[5mC]*dT*d[5mC]*d[5mC]*d[5mC]*d[5mC]*dT*dT*dT*dG*eG*eG) [compound 435479] |  |  |  |  |  |  | 9% |  |
| 435480 (antisense eG*eG*dT*d[5mC]*dA*dT*d[5mC]*dA*dG*d[5mC]*d[5mC]*dG*eG*eG) [compound 435480] |  |  |  |  |  |  | 53% |  |
| 435481 (antisense eG*eG*dG*dT*d[5mC]*dA*dT*d[5mC]*dA*dG*d[5mC]*d[5mC]*eG*eG) [compound 435481] |  |  |  |  |  |  | 50% |  |
| 435482 (antisense eT*eG*dG*dG*dT*d[5mC]*dA*dT*d[5mC]*dA*dG*d[5mC]*e[5mC]*eG) [compound 435482] |  |  |  |  |  |  | 62% |  |
| 435483 (antisense e[5mC]*eT*dG*dG*dG*dT*d[5mC]*dA*dT*d[5mC]*dA*dG*e[5mC]*e[5mC]) [compound 435483] |  |  |  |  |  |  | 82% |  |
| 435484 (antisense e[5mC]*e[5mC]*dT*dG*dG*dG*dT*d[5mC]*dA*dT*d[5mC]*dA*eG*e[5mC]) [compound 435484] |  |  |  |  |  |  | 45% |  |
| 435485 (antisense eT*e[5mC]*d[5mC]*dT*dG*dG*dG*dT*d[5mC]*dA*dT*d[5mC]*eA*eG) [compound 435485] |  |  |  |  |  |  | 34% |  |
| 435486 (antisense eG*eT*d[5mC]*d[5mC]*dT*dG*dG*dG*dT*d[5mC]*dA*dT*e[5mC]*eA) [compound 435486] |  |  |  |  |  |  | 64% |  |
| 435487 (antisense eA*eG*dT*d[5mC]*d[5mC]*dT*dG*dG*dG*dT*d[5mC]*dA*eT*e[5mC]) [compound 435487] |  |  |  |  |  |  | 36% |  |
